Source: ChEMBL document CHEMBL4052765, “Synthesis and antibacterial evaluation of novel 11-O-carbamoyl clarithromycin ketolides” (2017)
Values after ≈ are worked out from the molar mass of the structure shown.

Experiments:
Type in all cases: functional
Streptococcus pyogenes [1] = test: Antibacterial activity against erythromycin-resistant Streptococcus pyogenes R1 after 24 h by NCCLS broth microdilution method; settings: R1, 24 h
Pseudomonas aeruginosa = test: Antibacterial activity against penicillin-susceptible Pseudomonas aeruginosa ATCC 27853 after 24 h by NCCLS broth microdilution method; settings: ATCC 27853, 24 h
Bacillus subtilis = test: Antibacterial activity against penicillin-susceptible Bacillus subtilis ATCC 9372 after 24 h by NCCLS broth microdilution method; settings: ATCC 9372, 24 h
Staphylococcus aureus [2] = test: Antibacterial activity against […] Staphylococcus aureus ATCC 29213 after 24 h by NCCLS broth microdilution method; settings: ATCC 29213, 24 h
Staphylococcus aureus [3] = test: Antibacterial activity against erythromycin-susceptible Staphylococcus aureus ATCC 25923 after 24 h by NCCLS broth microdilution method; settings: ATCC 25923, 24 h
Streptococcus pneumoniae [4] = test: Antibacterial activity against erythromycin-resistant Streptococcus pneumoniae AB11 harboring harboring mef and erm gene after 24 h by NCCLS broth microdilution method; settings: AB11, 24 h
Streptococcus pneumoniae [5] = test: Antibacterial activity against erythromycin-resistant Streptococcus pneumoniae A22072 harboring mef gene after 24 h by NCCLS broth microdilution method; settings: A22072, 24 h
Streptococcus pyogenes [6] = test: Antibacterial activity against erythromycin-susceptible Streptococcus pyogenes after 24 h by NCCLS broth microdilution method
Escherichia coli = test: Antibacterial activity against penicillin-susceptible Escherichia coli ATCC 25922 after 24 h by NCCLS broth microdilution method; settings: ATCC 25922, 24 h
Streptococcus pneumoniae [7] = test: Antibacterial activity against erythromycin-resistant Streptococcus pneumoniae B1 harboring erm gene after 24 h by NCCLS broth microdilution method; settings: B1, 24 h

With CC[C@H]1OC(=O)[C@H](C)C(=O)[C@H](C)[C@@H](O[C@@H]2O[C@H](C)C[C@H](N(C)C)[C@H]2O)[C@](C)(OC)C[C@@H](C)C(=O)[C@H](C)[C@@H](OC(=O)NCCNC(=O)c2ccc(Br)cc2)[C@]1(C)O the MIC (Streptococcus pyogenes [1]) was > 128 µg/mL, the MIC (Pseudomonas aeruginosa) was 128 µg/mL (≈ 149 µM) and the MIC (Bacillus subtilis) was 1 µg/mL (≈ 1.17 µM). The MIC (Staphylococcus aureus [2]) was 128 µg/mL (≈ 149 µM), the MIC (Staphylococcus aureus [3]) was 8 µg/mL (≈ 9.34 µM) and the MIC (Streptococcus pneumoniae [4]) was 64 µg/mL (≈ 74.7 µM). For the same molecule, the MIC (Streptococcus pneumoniae [5]) was 1 µg/mL (≈ 1.17 µM), the MIC (Streptococcus pyogenes [6]) was 2 µg/mL (≈ 2.33 µM) and the MIC (Escherichia coli) was > 128 µg/mL. For the same molecule, the MIC (Streptococcus pneumoniae [7]) was 128 µg/mL (≈ 149 µM).
In the case of CC[C@H]1OC(=O)[C@H](C)C(=O)[C@H](C)[C@@H](O[C@@H]2O[C@H](C)C[C@H](N(C)C)[C@H]2O)[C@](C)(OC)C[C@@H](C)C(=O)[C@H](C)[C@@H](OC(=O)NCCNC(=O)/C=C/c2ccccc2Cl)[C@]1(C)O, the MIC (Streptococcus pyogenes [1]) is reported as > 128 µg/mL, the MIC (Pseudomonas aeruginosa) is reported as > 128 µg/mL and the MIC (Bacillus subtilis) is reported as 4 µg/mL (≈ 4.77 µM). It also gave an MIC (Staphylococcus aureus [2]) of 32 µg/mL (≈ 38.2 µM), an MIC (Staphylococcus aureus [3]) of 32 µg/mL (≈ 38.2 µM) and an MIC (Streptococcus pneumoniae [4]) of 128 µg/mL (≈ 153 µM). The MIC (Streptococcus pneumoniae [5]) was 2 µg/mL (≈ 2.39 µM), the MIC (Streptococcus pyogenes [6]) was 2 µg/mL (≈ 2.39 µM) and the MIC (Escherichia coli) was 128 µg/mL (≈ 153 µM). For the same molecule, the MIC (Streptococcus pneumoniae [7]) was 128 µg/mL (≈ 153 µM).
For CC[C@H]1OC(=O)[C@H](C)C(=O)[C@H](C)[C@@H](O[C@@H]2O[C@H](C)C[C@H](N(C)C)[C@H]2O)[C@](C)(OC)C[C@@H](C)C(=O)[C@H](C)[C@@H](OC(=O)NCCNC(=O)/C=C/c2ccc(C)cc2)[C@]1(C)O, the MIC (Streptococcus pyogenes [1]) was > 128 µg/mL, the MIC (Pseudomonas aeruginosa) was > 128 µg/mL and the MIC (Bacillus subtilis) was 8 µg/mL (≈ 9.78 µM). For the same molecule, the MIC (Staphylococcus aureus [2]) was 64 µg/mL (≈ 78.2 µM), the MIC (Staphylococcus aureus [3]) was 64 µg/mL (≈ 78.2 µM) and the MIC (Streptococcus pneumoniae [4]) was 64 µg/mL (≈ 78.2 µM). The MIC (Streptococcus pneumoniae [5]) was 4 µg/mL (≈ 4.89 µM), the MIC (Streptococcus pyogenes [6]) was 4 µg/mL (≈ 4.89 µM) and the MIC (Escherichia coli) was > 128 µg/mL. The MIC (Streptococcus pneumoniae [7]) was 128 µg/mL (≈ 156 µM).
For CC[C@H]1OC(=O)[C@H](C)C(=O)[C@H](C)[C@@H](O[C@@H]2O[C@H](C)C[C@H](N(C)C)[C@H]2O)[C@](C)(OC)C[C@@H](C)C(=O)[C@H](C)[C@@H](OC(=O)NCCNC(=O)c2ccc(C)cc2)[C@]1(C)O, the MIC (Streptococcus pyogenes [1]) was > 128 µg/mL, the MIC (Pseudomonas aeruginosa) was > 128 µg/mL and the MIC (Bacillus subtilis) was 2 µg/mL (≈ 2.53 µM). For the same molecule, the MIC (Staphylococcus aureus [2]) was 128 µg/mL (≈ 162 µM), the MIC (Staphylococcus aureus [3]) was 32 µg/mL (≈ 40.4 µM) and the MIC (Streptococcus pneumoniae [4]) was 64 µg/mL (≈ 80.8 µM). The MIC (Streptococcus pneumoniae [5]) was 2 µg/mL (≈ 2.53 µM), the MIC (Streptococcus pyogenes [6]) was 4 µg/mL (≈ 5.05 µM) and the MIC (Escherichia coli) was > 128 µg/mL. It also gave an MIC (Streptococcus pneumoniae [7]) of 128 µg/mL (≈ 162 µM).
In the case of CC[C@H]1OC(=O)[C@H](C)C(=O)[C@H](C)[C@@H](O[C@@H]2O[C@H](C)C[C@H](N(C)C)[C@H]2O)[C@](C)(OC)C[C@@H](C)C(=O)[C@H](C)[C@@H](OC(=O)NCCNC(=O)c2ccccc2)[C@]1(C)O, the MIC (Streptococcus pyogenes [1]) is reported as > 128 µg/mL, the MIC (Pseudomonas aeruginosa) is reported as > 128 µg/mL and the MIC (Bacillus subtilis) is reported as 4 µg/mL (≈ 5.14 µM). For the same molecule, the MIC (Staphylococcus aureus [2]) was 128 µg/mL (≈ 165 µM), the MIC (Staphylococcus aureus [3]) was 64 µg/mL (≈ 82.3 µM) and the MIC (Streptococcus pneumoniae [4]) was 128 µg/mL (≈ 165 µM). The MIC (Streptococcus pneumoniae [5]) was 4 µg/mL (≈ 5.14 µM), the MIC (Streptococcus pyogenes [6]) was 4 µg/mL (≈ 5.14 µM) and the MIC (Escherichia coli) was > 128 µg/mL. It also gave an MIC (Streptococcus pneumoniae [7]) of 128 µg/mL (≈ 165 µM).
For CC[C@H]1OC(=O)[C@H](C)C(=O)[C@H](C)[C@@H](O[C@@H]2O[C@H](C)C[C@H](N(C)C)[C@H]2O)[C@](C)(OC)C[C@@H](C)C(=O)[C@H](C)[C@@H](OC(=O)NCCNC(=O)c2ccc(F)cc2)[C@]1(C)O, the MIC (Streptococcus pyogenes [1]) was > 128 µg/mL, the MIC (Pseudomonas aeruginosa) was 128 µg/mL (≈ 161 µM) and the MIC (Bacillus subtilis) was 1 µg/mL (≈ 1.26 µM). The MIC (Staphylococcus aureus [2]) was 128 µg/mL (≈ 161 µM), the MIC (Staphylococcus aureus [3]) was 32 µg/mL (≈ 40.2 µM) and the MIC (Streptococcus pneumoniae [4]) was 64 µg/mL (≈ 80.4 µM). For the same molecule, the MIC (Streptococcus pneumoniae [5]) was 2 µg/mL (≈ 2.51 µM), the MIC (Streptococcus pyogenes [6]) was 2 µg/mL (≈ 2.51 µM) and the MIC (Escherichia coli) was > 128 µg/mL. It also gave an MIC (Streptococcus pneumoniae [7]) of 128 µg/mL (≈ 161 µM).
CC[C@H]1OC(=O)[C@H](C)C(=O)[C@H](C)[C@@H](O[C@@H]2O[C@H](C)C[C@H](N(C)C)[C@H]2O)[C@](C)(OC)C[C@@H](C)C(=O)[C@H](C)[C@@H](OC(=O)NCCNC(=O)c2ccc([N+](=O)[O-])cc2)[C@]1(C)O was tested, and the MIC (Streptococcus pyogenes [1]) was > 128 µg/mL, the MIC (Pseudomonas aeruginosa) was 128 µg/mL (≈ 156 µM) and the MIC (Bacillus subtilis) was 1 µg/mL (≈ 1.22 µM). The MIC (Staphylococcus aureus [2]) was 128 µg/mL (≈ 156 µM), the MIC (Staphylococcus aureus [3]) was 16 µg/mL (≈ 19.4 µM) and the MIC (Streptococcus pneumoniae [4]) was 64 µg/mL (≈ 77.8 µM). For the same molecule, the MIC (Streptococcus pneumoniae [5]) was 1 µg/mL (≈ 1.22 µM), the MIC (Streptococcus pyogenes [6]) was 0.25 µg/mL (≈ 0.304 µM) and the MIC (Escherichia coli) was > 128 µg/mL. It also gave an MIC (Streptococcus pneumoniae [7]) of 128 µg/mL (≈ 156 µM).
CC[C@H]1OC(=O)[C@H](C)C(=O)[C@H](C)[C@@H](O[C@@H]2O[C@H](C)C[C@H](N(C)C)[C@H]2O)[C@](C)(OC)C[C@@H](C)C(=O)[C@H](C)[C@@H](OC(=O)NCCNC(=O)c2ccccc2O)[C@]1(C)O was tested, and the MIC (Streptococcus pyogenes [1]) was > 128 µg/mL, the MIC (Pseudomonas aeruginosa) was 128 µg/mL (≈ 161 µM) and the MIC (Bacillus subtilis) was 8 µg/mL (≈ 10.1 µM). The MIC (Staphylococcus aureus [2]) was 128 µg/mL (≈ 161 µM), the MIC (Staphylococcus aureus [3]) was 32 µg/mL (≈ 40.3 µM) and the MIC (Streptococcus pneumoniae [4]) was 64 µg/mL (≈ 80.6 µM). For the same molecule, the MIC (Streptococcus pneumoniae [5]) was 4 µg/mL (≈ 5.04 µM), the MIC (Streptococcus pyogenes [6]) was 4 µg/mL (≈ 5.04 µM) and the MIC (Escherichia coli) was > 128 µg/mL. It also gave an MIC (Streptococcus pneumoniae [7]) of 128 µg/mL (≈ 161 µM).
In the case of CC[C@H]1OC(=O)[C@H](C)C(=O)[C@H](C)[C@@H](O[C@@H]2O[C@H](C)C[C@H](N(C)C)[C@H]2O)[C@](C)(OC)C[C@@H](C)C(=O)[C@H](C)[C@@H](OC(=O)NCCNC(=O)c2cccc(O)c2)[C@]1(C)O, the MIC (Streptococcus pyogenes [1]) is reported as > 128 µg/mL, the MIC (Pseudomonas aeruginosa) is reported as > 128 µg/mL and the MIC (Bacillus subtilis) is reported as 16 µg/mL (≈ 20.2 µM). For the same molecule, the MIC (Staphylococcus aureus [2]) was 128 µg/mL (≈ 161 µM), the MIC (Staphylococcus aureus [3]) was 128 µg/mL (≈ 161 µM) and the MIC (Streptococcus pneumoniae [4]) was 64 µg/mL (≈ 80.6 µM). For the same molecule, the MIC (Streptococcus pneumoniae [5]) was 16 µg/mL (≈ 20.2 µM), the MIC (Streptococcus pyogenes [6]) was 2 µg/mL (≈ 2.52 µM) and the MIC (Escherichia coli) was > 128 µg/mL. For the same molecule, the MIC (Streptococcus pneumoniae [7]) was 128 µg/mL (≈ 161 µM).
